What was measured:
[1] = target: T1, 5-hydroxytryptamine receptor 3A (Homo sapiens, UniProt P46098); assay: Displacement of [3H]granisetron from human 5HT3A receptor expressed in HEK293 cells by filter binding assay; format: cell-based
T1 sequence (P46098 whole entry): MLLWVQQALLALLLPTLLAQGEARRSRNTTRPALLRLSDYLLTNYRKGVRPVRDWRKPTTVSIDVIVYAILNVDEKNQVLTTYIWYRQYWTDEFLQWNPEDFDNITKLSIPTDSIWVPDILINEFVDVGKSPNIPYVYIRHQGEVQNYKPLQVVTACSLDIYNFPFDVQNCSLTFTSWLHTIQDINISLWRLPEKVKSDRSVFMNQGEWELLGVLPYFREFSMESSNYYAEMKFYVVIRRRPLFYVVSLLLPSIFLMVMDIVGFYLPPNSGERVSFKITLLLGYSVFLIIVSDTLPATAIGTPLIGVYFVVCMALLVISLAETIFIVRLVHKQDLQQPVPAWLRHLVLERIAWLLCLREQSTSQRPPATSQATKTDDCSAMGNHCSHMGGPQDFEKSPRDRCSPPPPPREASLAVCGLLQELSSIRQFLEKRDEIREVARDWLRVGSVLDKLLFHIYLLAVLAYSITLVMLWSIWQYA

[2] = target: Sodium-dependent serotonin transporter (Rattus norvegicus, UniProt P31652); assay: Inhibition of SERT-mediated [3H]5HT uptake in rat synaptosomes by scintillation counting; format: subcellular, Brain
[3] = target: T2, 5-hydroxytryptamine receptor 1A (Homo sapiens, UniProt P08908); assay: biochemical; format: cell-based, HEK293
T2 sequence (P08908 whole entry): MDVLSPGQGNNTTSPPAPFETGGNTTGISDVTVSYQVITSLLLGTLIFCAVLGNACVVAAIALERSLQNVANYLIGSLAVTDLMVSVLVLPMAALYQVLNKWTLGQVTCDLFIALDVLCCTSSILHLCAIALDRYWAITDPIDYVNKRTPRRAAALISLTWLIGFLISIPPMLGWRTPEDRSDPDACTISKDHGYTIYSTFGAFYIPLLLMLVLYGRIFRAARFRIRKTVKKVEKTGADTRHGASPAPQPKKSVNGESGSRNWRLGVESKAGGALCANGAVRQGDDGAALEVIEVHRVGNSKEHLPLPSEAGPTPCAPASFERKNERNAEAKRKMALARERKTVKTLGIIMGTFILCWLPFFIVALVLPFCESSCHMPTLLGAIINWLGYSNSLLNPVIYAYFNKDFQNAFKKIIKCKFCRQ
Description: Displacement of [3H]5-carboxamidotryptamine to human 5HT1A expressed in HEK293 cells by filter binding assay

Cytochrome P450 2C9 = Cytochrome P450 2C9 (Homo sapiens, UniProt P11712); assay: Inhibition of human recombinant CYP2C9 using dibenzylfluorescein after 45 mins by fluorescence spectrophotometric analysis; format: ADME
Rattus norvegicus [4] = species: Rattus norvegicus; assay: Selectivity ratio of IC50 for NET to IC50 for SERT in rat synaptosomes; settings: Brain
Rattus norvegicus [5] = species: Rattus norvegicus; assay: Selectivity ratio of IC50 for DAT to IC50 for SERT in rat synaptosomes; settings: Brain
[6] = target: Sodium-dependent dopamine transporter (Rattus norvegicus, UniProt P23977); assay: Inhibition of DAT-mediated [3H]DA in rat synaptosomes by scintillation counting; format: subcellular, Brain
Liver microsomes [7] = assay: Intrinsic clearance in rat liver microsomes at 1 uM after 60 mins by LC-MS/MS analysis; format: ADME, Microsome; settings: 1 h
Cytochrome P450 1A2 = target: T3, Cytochrome P450 1A2 (Homo sapiens, UniProt P05177); assay: Inhibition of human recombinant CYP1A2 using 7-ethoxy-3-cyanocoumarin after 28 mins by fluorescence spectrophotometric analysis; format: ADME
T3 sequence (P05177 whole entry): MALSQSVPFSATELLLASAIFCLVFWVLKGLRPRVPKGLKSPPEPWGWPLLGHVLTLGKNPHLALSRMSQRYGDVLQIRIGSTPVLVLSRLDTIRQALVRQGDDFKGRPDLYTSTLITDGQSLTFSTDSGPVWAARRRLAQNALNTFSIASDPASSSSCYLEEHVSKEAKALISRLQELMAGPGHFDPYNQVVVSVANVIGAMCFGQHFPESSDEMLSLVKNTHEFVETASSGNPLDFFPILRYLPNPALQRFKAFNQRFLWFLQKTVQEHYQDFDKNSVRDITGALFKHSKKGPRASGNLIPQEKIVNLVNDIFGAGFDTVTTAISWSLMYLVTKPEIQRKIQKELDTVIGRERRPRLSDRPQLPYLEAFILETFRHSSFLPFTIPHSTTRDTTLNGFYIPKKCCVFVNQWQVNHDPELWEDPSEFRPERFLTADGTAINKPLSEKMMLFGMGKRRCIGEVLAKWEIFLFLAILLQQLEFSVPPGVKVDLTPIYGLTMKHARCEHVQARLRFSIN

Liver microsomes [8] = assay: Intrinsic clearance in human liver microsomes at 1 uM after 60 mins by LC-MS/MS analysis; format: ADME, Microsome; settings: 1 h
Cytochrome P450 3A4 = Cytochrome P450 3A4 (Homo sapiens, UniProt P08684); assay: Inhibition of human recombinant CYP3A4 using resorufin benzyl ether after 30 mins by fluorescence spectrophotometric analysis; format: ADME
[9] = Inhibition of NET-mediated [3H]NE in rat synaptosomes by scintillation counting; format: subcellular, Brain
Cytochrome P450 2D6 = Cytochrome P450 2D6 (Homo sapiens, UniProt P10635); assay: Inhibition of human recombinant CYP2D6 using 3-[2-(N,N-diethyl-N-methylamino)ethyl]-7-methoxy- 4-methylcoumarin after 45 mins by fluorescence spectrophotometric analysis; format: ADME
Sequence of Cytochrome P450 2D6 (P10635 whole entry): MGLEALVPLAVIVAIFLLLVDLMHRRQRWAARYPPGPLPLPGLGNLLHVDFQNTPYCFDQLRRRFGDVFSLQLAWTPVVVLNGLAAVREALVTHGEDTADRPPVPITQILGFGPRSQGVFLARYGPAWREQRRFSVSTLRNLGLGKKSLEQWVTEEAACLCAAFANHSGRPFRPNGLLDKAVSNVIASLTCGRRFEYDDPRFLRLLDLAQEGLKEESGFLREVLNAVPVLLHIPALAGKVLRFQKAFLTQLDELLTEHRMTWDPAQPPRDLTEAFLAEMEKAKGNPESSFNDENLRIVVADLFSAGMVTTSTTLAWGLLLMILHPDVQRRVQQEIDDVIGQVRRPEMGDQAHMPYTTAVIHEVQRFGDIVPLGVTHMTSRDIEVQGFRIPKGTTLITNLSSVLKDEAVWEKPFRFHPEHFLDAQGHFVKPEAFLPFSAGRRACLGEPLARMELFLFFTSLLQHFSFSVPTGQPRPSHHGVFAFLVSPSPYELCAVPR

Sequence of Cytochrome P450 3A4 (P08684 whole entry): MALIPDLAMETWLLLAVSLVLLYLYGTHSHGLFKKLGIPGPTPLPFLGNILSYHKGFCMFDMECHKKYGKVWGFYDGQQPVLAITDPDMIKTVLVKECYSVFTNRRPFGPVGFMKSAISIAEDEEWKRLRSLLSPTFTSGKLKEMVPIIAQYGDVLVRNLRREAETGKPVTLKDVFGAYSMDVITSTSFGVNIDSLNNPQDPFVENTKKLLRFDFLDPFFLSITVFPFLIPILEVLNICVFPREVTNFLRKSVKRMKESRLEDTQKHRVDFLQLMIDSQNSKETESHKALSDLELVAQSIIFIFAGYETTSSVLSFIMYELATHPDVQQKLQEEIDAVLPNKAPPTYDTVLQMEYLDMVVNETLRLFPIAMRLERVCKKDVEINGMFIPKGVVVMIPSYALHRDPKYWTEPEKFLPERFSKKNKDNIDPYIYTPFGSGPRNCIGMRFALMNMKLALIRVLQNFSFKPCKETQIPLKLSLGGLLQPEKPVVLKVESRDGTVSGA
Sequence of Sodium-dependent dopamine transporter (P23977 whole entry): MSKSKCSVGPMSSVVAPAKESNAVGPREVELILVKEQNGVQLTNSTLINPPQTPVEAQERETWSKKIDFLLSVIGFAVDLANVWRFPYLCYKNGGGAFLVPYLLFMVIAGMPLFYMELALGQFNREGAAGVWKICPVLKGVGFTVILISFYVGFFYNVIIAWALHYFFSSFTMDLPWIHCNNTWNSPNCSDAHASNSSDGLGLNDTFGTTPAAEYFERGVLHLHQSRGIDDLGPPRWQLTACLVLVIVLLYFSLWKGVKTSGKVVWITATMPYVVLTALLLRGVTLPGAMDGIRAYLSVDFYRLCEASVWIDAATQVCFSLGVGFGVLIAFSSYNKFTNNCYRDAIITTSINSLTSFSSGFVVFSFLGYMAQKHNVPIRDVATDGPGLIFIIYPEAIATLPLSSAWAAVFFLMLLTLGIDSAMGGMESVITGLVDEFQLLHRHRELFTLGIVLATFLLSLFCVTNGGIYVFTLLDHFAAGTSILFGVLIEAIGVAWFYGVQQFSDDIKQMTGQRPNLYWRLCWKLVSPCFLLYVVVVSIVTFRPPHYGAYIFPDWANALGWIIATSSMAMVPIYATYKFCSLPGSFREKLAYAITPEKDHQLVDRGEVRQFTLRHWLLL
Sequence of Sodium-dependent serotonin transporter (P31652 whole entry): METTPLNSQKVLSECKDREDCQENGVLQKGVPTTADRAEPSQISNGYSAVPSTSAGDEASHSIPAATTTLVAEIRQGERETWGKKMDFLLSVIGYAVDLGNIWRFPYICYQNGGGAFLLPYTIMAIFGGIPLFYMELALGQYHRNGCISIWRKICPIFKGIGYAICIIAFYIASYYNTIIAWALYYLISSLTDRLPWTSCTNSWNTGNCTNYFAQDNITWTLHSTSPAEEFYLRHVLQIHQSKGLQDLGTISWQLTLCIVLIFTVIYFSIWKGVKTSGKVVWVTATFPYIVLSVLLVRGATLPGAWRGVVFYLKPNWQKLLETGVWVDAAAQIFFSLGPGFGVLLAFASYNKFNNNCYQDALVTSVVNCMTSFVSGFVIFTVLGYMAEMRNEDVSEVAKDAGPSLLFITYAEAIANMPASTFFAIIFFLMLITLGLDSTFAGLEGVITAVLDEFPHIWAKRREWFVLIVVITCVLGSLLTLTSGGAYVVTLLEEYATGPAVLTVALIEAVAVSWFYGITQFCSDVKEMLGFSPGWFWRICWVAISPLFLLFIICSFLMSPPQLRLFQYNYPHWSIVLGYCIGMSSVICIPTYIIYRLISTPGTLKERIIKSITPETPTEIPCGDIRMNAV
Sequence of Cytochrome P450 2C9 (P11712 whole entry): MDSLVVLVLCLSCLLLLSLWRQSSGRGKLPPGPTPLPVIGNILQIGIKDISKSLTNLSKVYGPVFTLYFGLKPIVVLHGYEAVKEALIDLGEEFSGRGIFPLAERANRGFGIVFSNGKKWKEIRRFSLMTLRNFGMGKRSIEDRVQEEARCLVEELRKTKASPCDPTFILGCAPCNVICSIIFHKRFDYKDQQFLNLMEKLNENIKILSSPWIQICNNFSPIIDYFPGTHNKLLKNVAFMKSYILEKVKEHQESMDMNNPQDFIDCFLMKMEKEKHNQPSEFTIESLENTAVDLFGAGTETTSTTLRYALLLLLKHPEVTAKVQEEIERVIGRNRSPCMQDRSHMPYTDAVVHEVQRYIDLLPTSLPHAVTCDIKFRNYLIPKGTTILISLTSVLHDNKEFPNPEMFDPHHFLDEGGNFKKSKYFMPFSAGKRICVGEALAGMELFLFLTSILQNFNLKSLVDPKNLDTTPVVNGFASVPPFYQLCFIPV

| SMILES | Ki [1] | IC50 [2] | Ki [3] | further results |
| --- | --- | --- | --- | --- |
| Cc1ccccc1Sc1ccccc1N1CCNCC1 | 32 nM | 51 nM | 14 nM | – |
| Fc1ccc(Sc2ccccc2N2CCNCC2)cc1 | 53 nM | 67 nM | 39 nM | – |
| Clc1cccc(Sc2ccccc2N2CCNCC2)c1Cl | – | – | – | IC50 (Cytochrome P450 2C9): 40000 nM; Ratio IC50 (Rattus norvegicus [4]): 7; Ratio IC50 (Rattus norvegicus [5]): 1 |
| COc1ccc(Sc2ccccc2N2CCNCC2)cc1OC | 86 nM | 15 nM | 160 nM | – |
| COc1ccc(Sc2ccccc2N2CCNCC2)c(Cl)c1 | 12 nM | 4.3 nM | 94 nM | – |
| Cc1ccc(Sc2ccc(Cl)cc2)c(N2CCNCC2)c1 | 500 nM | 9.5 nM | 2500 nM | – |
| Cc1ccc(Sc2ccccc2)c(N2CCNCC2)c1 | 310 nM | 150 nM | 1100 nM | – |
| Cc1ccc(Sc2ccccc2N2CCN(C)CC2)c(C)c1 | 130 nM | 680 nM | 120 nM | – |
| Cc1ccc(Sc2ccccc2N2CCNCC2)c(Cl)c1.Cl | 7.3 nM | 9.7 nM | 78 nM | IC50 [6]: 320 nM; IC50 (Cytochrome P450 2C9): 40000 nM; CLH (Liver microsomes [7]): 120 mL/min; Ratio IC50 (Rattus norvegicus [4]): 35; IC50 (Cytochrome P450 1A2): 34000 nM; CLH (Liver microsomes [8]): 0.6 L/min; IC50 (Cytochrome P450 3A4): 5500 nM; Ratio IC50 (Rattus norvegicus [5]): 33; IC50 [9]: 340 nM; IC50 (Cytochrome P450 2D6): 1500 nM |
| COc1cccc(Sc2ccccc2N2CCNCC2)c1OC | – | 37 nM | – | – |
| Cc1ccc(Sc2cc(C)ccc2N2CCNCC2)c(C)c1 | 45 nM | 200 nM | – | – |
| Cc1ccc(Oc2ccccc2N2CCNCC2)c(C)c1 | 270 nM | 250 nM | 65 nM | – |
| Cc1ccc(Sc2ccccc2N2CCNCC2)cc1C.Cl | 33 nM | 5.8 nM | 53 nM | IC50 [6]: 120 nM; IC50 (Cytochrome P450 2C9): 34000 nM; CLH (Liver microsomes [7]): 290 mL/min; Ratio IC50 (Rattus norvegicus [4]): 150; IC50 (Cytochrome P450 1A2): 26000 nM; CLH (Liver microsomes [8]): 0.5 L/min; IC50 (Cytochrome P450 3A4): 11000 nM; Ratio IC50 (Rattus norvegicus [5]): 21; IC50 [9]: 880 nM; IC50 (Cytochrome P450 2D6): 2800 nM |
| Cc1ccc(Sc2ccccc2N2CCCNCC2)c(C)c1 | 27 nM | 130 nM | – | – |
| O=C1CC2(CCCC2)CC(=O)N1CCCCN1CCN(c2ncccn2)CC1 [BUSPIRONE] | > 10000 nM | – | – | – |
| Cc1ccc(Sc2ccc(C)cc2N2CCNCC2)cc1 | 260 nM | 20 nM | 2800 nM | – |
| Cc1ccc(Sc2cccc(C)c2N2CCNCC2)c(C)c1 | 160 nM | 44 nM | 420 nM | – |
| c1ccc(Sc2ccccc2N2CCNCC2)cc1 | 64 nM | 390 nM | 30 nM | – |

Now from value to molecule, other results behind:

| Ki [1] | IC50 [2] | Ki [3] | SMILES | further results |
| --- | --- | --- | --- | --- |
| 36 nM | 8 nM | 130 nM | COc1ccc(Sc2ccccc2N2CCNCC2)cc1 | – |
| 110 nM | 4.7 nM | 68 nM | Clc1ccc(Sc2ccccc2N2CCNCC2)cc1Cl | – |
| 440 nM | 68 nM | 1100 nM | Cc1ccc(Sc2ccc(F)cc2)c(N2CCNCC2)c1 | – |
| 56 nM | 18 nM | 44 nM | Cc1ccc(Sc2ccccc2N2CCNCC2)cc1.Cl | IC50 [6]: 110 nM; IC50 (Cytochrome P450 2C9): 40000 nM; CLH (Liver microsomes [7]): 260 mL/min; Ratio IC50 (Rattus norvegicus [4]): 25; IC50 (Cytochrome P450 1A2): 40000 nM; CLH (Liver microsomes [8]): 1.1 L/min; IC50 (Cytochrome P450 3A4): 16000 nM; Ratio IC50 (Rattus norvegicus [5]): 6.1; IC50 [9]: 460 nM; IC50 (Cytochrome P450 2D6): 2700 nM |
| 29 nM | 4.4 nM | – | Cc1cccc(Sc2ccccc2N2CCNCC2)c1C | IC50 [6]: 170 nM; Ratio IC50 (Rattus norvegicus [4]): 20; IC50 (Cytochrome P450 1A2): 24000 nM; Ratio IC50 (Rattus norvegicus [5]): 38 |
| 62 nM | 53 nM | 140 nM | COc1cccc(Sc2ccccc2N2CCNCC2)c1 | – |
| 670 nM | 540 nM | 540 nM | Cc1ccc(Sc2c(C)cccc2N2CCNCC2)c(C)c1 | – |
| 26 nM | 5.2 nM | 78 nM | Cl.Clc1ccc(Sc2ccccc2N2CCNCC2)c(Cl)c1 | IC50 [6]: 250 nM; IC50 (Cytochrome P450 2C9): 34000 nM; CLH (Liver microsomes [7]): 38 mL/min; Ratio IC50 (Rattus norvegicus [4]): 23; IC50 (Cytochrome P450 1A2): 27000 nM; CLH (Liver microsomes [8]): 0.5 L/min; IC50 (Cytochrome P450 3A4): 4400 nM; Ratio IC50 (Rattus norvegicus [5]): 48; IC50 [9]: 120 nM; IC50 (Cytochrome P450 2D6): 900 nM |
| 17 nM | 11 nM | 210 nM | COc1cc(C)ccc1Sc1ccccc1N1CCNCC1 | – |
| 150 nM | 25 nM | – | Cc1ccc(Sc2ccc(C)cc2N2CCNCC2)c(C)c1 | – |
| 64 nM | 54 nM | 100 nM | Cc1cccc(Sc2ccccc2N2CCNCC2)c1 | – |
| 32 nM | 7.6 nM | 330 nM | COc1ccc(Sc2ccccc2N2CCNCC2)c(OC)c1 | – |
| 140 nM | 6.9 nM | 240 nM | FC(F)(F)c1ccc(Sc2ccccc2N2CCNCC2)cc1 | – |
| 52 nM | 330 nM | 59 nM | COc1ccccc1Sc1ccccc1N1CCNCC1 | – |
| 450 nM | 2100 nM | 2500 nM | CC(C)(C)c1ccc(Sc2ccccc2N2CCNCC2)cc1 | – |

Source: ChEMBL document CHEMBL2203036, “Discovery of 1-[2-(2,4-dimethylphenylsulfanyl)phenyl]piperazine (Lu AA21004): a novel multimodal compound for the treatment of major depressive disorder” (J Med Chem, 2011)
